TGI data for 11 compounds are collected here from PubChem BioAssay (NCI).

Among the test systems are SF-268 CNS; OVCAR-5 ovarian; SK-MEL-2 melanoma; HOP-62 NSCLC; MALME-3M melanoma; HCT-15 colon; LOX IMVI melanoma; SK-MEL-28 melanoma; UACC-62 melanoma; RPMI-8226 leukemia.
Holding throughout (assay): NCI anticancer screen, dose series, 48 h

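Step 1: Grow cells in 96-well plates. Step 2: Expose to compound for 48 hours at 5 concentrations. Step 3: Interpolate endpoints linearly; if unreached, use highest concentration. TGI is the concentration that stops growth completely.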

Consider `COc1cc([C@@H]2c3cc4c(cc3[C@H](OC3OC5COC(C(C)C)OC5C(O)C3O)C3COC(=O)[C@@H]32)OCO4)cc(OC)c1OC` (stereo not given in full), for which the TGI with SF-268 CNS was more than 100 µM; in the assay on OVCAR-5 ovarian, more than 73.8 µM; in the assay with SK-MEL-2 melanoma it was 25.4 µM; with HOP-62 NSCLC it was 25.4 µM; in the assay on MALME-3M melanoma, 30.5 µM; in the assay with HCT-15 colon, 94.1 µM. Besides, the TGI in the assay on LOX IMVI melanoma is 27 µM; with SK-MEL-28 melanoma, more than 100 µM; in the assay with UACC-62 melanoma, 26.6 µM; with RPMI-8226 leukemia, 48.8 µM.

On to `Cc1cc2nc3c(C)c4ccccc4c(C)n3c2cc1C`, for which the TGI in the assay with SF-268 CNS was more than 10 µM; in the assay on OVCAR-5 ovarian it was more than 10 µM; in the assay with SK-MEL-2 melanoma it was more than 10 µM; in the assay on HOP-62 NSCLC it was more than 10 µM; in the assay on MALME-3M melanoma it was 6.66 µM; in the assay on HCT-15 colon it was 6.14 µM. The TGI in the assay with LOX IMVI melanoma was 3.61 µM; in the assay on SK-MEL-28 melanoma, 9 µM; in the assay with UACC-62 melanoma it was more than 10 µM; with RPMI-8226 leukemia, more than 10 µM.

For `c1ccc(C2SCc3nc4ccccc4n32)cc1` (stereo not given), the TGI in the assay with SF-268 CNS, in the assay with OVCAR-5 ovarian, with SK-MEL-2 melanoma, in the assay with HOP-62 NSCLC, in the assay with MALME-3M melanoma and in the assay on HCT-15 colon was more than 100 µM each time. The TGI is more than 100 µM with LOX IMVI melanoma, more than 100 µM in the assay with SK-MEL-28 melanoma, more than 100 µM with UACC-62 melanoma and 67.3 µM with RPMI-8226 leukemia.

Consider `O=C(O)Cn1cnc2c(=O)[nH]c(Nc3ccccc3)nc21`, for which the TGI in the assay on SF-268 CNS, in the assay with OVCAR-5 ovarian, in the assay on SK-MEL-2 melanoma, with HOP-62 NSCLC, in the assay on MALME-3M melanoma and in the assay with HCT-15 colon was more than 100 µM in each case. The TGI in the assay on LOX IMVI melanoma, with SK-MEL-28 melanoma, in the assay with UACC-62 melanoma and with RPMI-8226 leukemia was more than 100 µM throughout.

As to `CN(C)CCNC(=O)c1cccc2c(NC(CCCN=C(N)N)C(=O)O)c3ccccc3nc12` (stereo not given), the TGI in the assay on SF-268 CNS is 27.7 µM; in the assay with OVCAR-5 ovarian it was more than 100 µM; in the assay on SK-MEL-2 melanoma, 38.4 µM; with HOP-62 NSCLC, 90.8 µM; with MALME-3M melanoma, 23.4 µM; in the assay with HCT-15 colon, more than 100 µM. For the same compound, the TGI was more than 100 µM in the assay on LOX IMVI melanoma, 89.2 µM in the assay with SK-MEL-28 melanoma, 60 µM in the assay on UACC-62 melanoma and more than 100 µM in the assay with RPMI-8226 leukemia.

Regarding `CCN1CC2(CO)CCC(OC)C34C5CC6C(OC)CC(O)(C5C6OC)C(O)(C(OC)C23)C14` (stereo not given), the TGI is more than 375 µM in the assay with SF-268 CNS; more than 209 µM with OVCAR-5 ovarian; more than 63.9 µM in the assay on SK-MEL-2 melanoma; more than 375 µM in the assay on HOP-62 NSCLC; more than 375 µM in the assay on MALME-3M melanoma; more than 375 µM in the assay with HCT-15 colon. Moreover, the TGI in the assay on LOX IMVI melanoma, in the assay with SK-MEL-28 melanoma, in the assay with UACC-62 melanoma and in the assay on RPMI-8226 leukemia was more than 375 µM each time.

`Nc1nc(Cl)cc(Oc2ccc(Cl)cc2)n1`: the TGI in the assay on SF-268 CNS, in the assay with OVCAR-5 ovarian, with SK-MEL-2 melanoma, with HOP-62 NSCLC, in the assay on MALME-3M melanoma and in the assay with HCT-15 colon was more than 100 µM in each case. Further, the TGI in the assay with LOX IMVI melanoma, in the assay on SK-MEL-28 melanoma, with UACC-62 melanoma and in the assay with RPMI-8226 leukemia was more than 100 µM throughout.

As for `CN1CN(c2ccccc2)C2(CCN(C(=O)OC(C)(C)C)CC2)C1=O`, the TGI in the assay with SF-268 CNS, in the assay on OVCAR-5 ovarian, with SK-MEL-2 melanoma, in the assay with HOP-62 NSCLC, in the assay with MALME-3M melanoma and in the assay with HCT-15 colon was more than 100 µM each time. In addition, the TGI with LOX IMVI melanoma, with SK-MEL-28 melanoma, in the assay on UACC-62 melanoma and with RPMI-8226 leukemia was more than 100 µM in each case.

For the compound `O=C(O)C(=Cc1ccc(-c2ccc([N+](=O)[O-])cc2)o1)C(=O)O`, the TGI in the assay with SF-268 CNS, with OVCAR-5 ovarian, with SK-MEL-2 melanoma, in the assay on HOP-62 NSCLC, in the assay with MALME-3M melanoma and in the assay on HCT-15 colon was more than 100 µM in each case. Also, the TGI with LOX IMVI melanoma, in the assay with SK-MEL-28 melanoma, in the assay on UACC-62 melanoma and in the assay on RPMI-8226 leukemia was more than 100 µM each time.

On to `Cc1ccnc2[nH]c(-c3ccc(Cl)cc3)cc(=O)c12`, for which the TGI in the assay on SF-268 CNS is more than 100 µM; with OVCAR-5 ovarian, more than 100 µM; with SK-MEL-2 melanoma, more than 100 µM; in the assay with HOP-62 NSCLC, more than 93.5 µM; in the assay with MALME-3M melanoma, more than 100 µM; in the assay with HCT-15 colon, more than 100 µM. Further, the TGI with LOX IMVI melanoma is more than 100 µM; in the assay on SK-MEL-28 melanoma, more than 100 µM; in the assay with UACC-62 melanoma, more than 100 µM; in the assay with RPMI-8226 leukemia, more than 58.5 µM.

On to `COc1cc2c(cc1OC)C/C(=N\O)c1cc(OC)c(OC)cc1/C=C\2`, for which the TGI was more than 100 µM in the assay on SF-268 CNS; more than 55.3 µM in the assay with OVCAR-5 ovarian; 44.6 µM in the assay with SK-MEL-2 melanoma; more than 27 µM in the assay with HOP-62 NSCLC; 9.9 µM in the assay with MALME-3M melanoma; more than 100 µM in the assay on HCT-15 colon. For the same compound, the TGI in the assay with LOX IMVI melanoma is 25.6 µM; in the assay with SK-MEL-28 melanoma it was more than 45 µM; in the assay with UACC-62 melanoma it was more than 58 µM; in the assay with RPMI-8226 leukemia, 66.9 µM.
